Results on two compounds are retold here after PMC8942502 (Journal of Enzyme Inhibition and Medicinal Chemistry, 2022).

Where two headings read alike, the source gives them in different places.

The subject of one assay is U937 cells. In words: MTT cell viability assay. Format: cell-based. The following applies: 0.1-50 μM, 48 and 72 h. The method, then: (§1) The tested compounds have been dissolved in DMSO at […] as stock concentration. All compounds have been tested at 10 μM and 50 μM as final concentrations for WB analysis. All compounds have been used at 0.1 μM, 5 μM, 10 μM, 25 μM, 50 μM as final concentration for proliferation assays. ORY-1001 (Selleck Catalog No. S7795) was used as reference compound at the concentration of 25 μM.
(§2) Cell culture LNCaP and U937 were purchased from ATCC (Milan, Italy). LNCaP were grown in Roswell Park Memorial Institute culture medium (RPMI; EuroClone, Milan, Italy), supplemented with 10% heat-inactivated foetal bovine serum (FBS; Sigma-Aldrich, Schnellendorf, Germany), antimicrobials (100 U/mL penicillin, 100 µg/mL streptomycin, 250 ng/mL amphotericin-B), 2 mM L-glutamine (EuroClone, Milan, Italy), and 1% essential amino acids solution (MEM; EuroClone, Milan, Italy). U937 were cultured in Dulbecco’s Modified Eagle Medium (DMEM; EuroClone, Milan, Italy), supplemented with 10% heat-inactivated foetal bovine serum (FBS; Sigma-Aldrich, Schnellendorf, Germany), antimicrobials (100 U/mL penicillin, 100 µg/mL streptomycin, 250 ng/mL amphotericin-B), 2 mM L-glutamine (EuroClone). Cells have grown in standard incubator conditions at 37 °C and 5% CO2.
(§3) Cell viability was determined on LNCaP and U937 cell lines using Thiazolyl Blue Tetrazolium Bromide [3-(4,5-dimethylthiazol-2-yl)-2,5-diphenyltetrazolium bromide] (MTT; Sigma-Aldrich, Schnellendorf, Germany) assay, following manufacturer’s instructions. A total of 5 × 10^3 cells/well were plated in a 96-well plate and treated, in duplicates, and repeated for three times, with the tested compounds at different concentrations 0.1 μM, 5 μM, 10 μM, 25 μM, 50 μM as final concentrations for 48 h, and 72 h. […] Absorbance was read at a wavelength of 570 nm with a TECAN M − 200 reader (Tecan, Männedorf, Switzerland).
Background: Tetrazolium dyes change colour on reduction, which living cells bring about.

The test system of assay [1] is LNCaP cells. In words: MTT cell viability assay. The conditions noted are these: Homo sapiens. Format: cell-based. Here is the method:
as §1, §2, §3

The test system of assay [2] is MV4-11 acute myeloid leukaemia (AML) cells. Further details: method as in PMID 32003940. The conditions noted are these: cited from earlier work.
The test system of another assay is MAO-A. The conditions noted are these: @ 100 μM; Figure 1; cited from earlier work.
The next assay addresses T1, LSD1-CoREST complex (Homo sapiens, UniProt O60341).
T1 construct: made in house; host or cells: Escherichia coli
In words: LSD1-CoREST inhibition assay (Amplex UltraRed/HRP, H3K4 peptide). The conditions noted are these: mean ± SD from two experiments in duplicate; 10 min preincubation. Format: biochemical.

Another assay deals with NB4 APL cells. Further details: method as in PMID 32003940. The conditions noted are these: cited from earlier work.
The subject of another assay is LSD1. The conditions noted are these: Figure 1; cited from earlier work.
The test system of another assay is MAO-B. The conditions noted are these: @ 100 μM; Figure 1; cited from earlier work.
Assay [3] concerns LNCaP cells. The arrangement: method as in PMID 30693539. The conditions noted are these: 72 h; cited from earlier work.

One may read the IC50 as the concentration needed to halve the response being measured. `NC1CC1c1ccc(NC(=O)c2ccc(-c3ccccc3)cc2)cc1` (stereo not shown) [1a]: the “effect on cell viability in U937 cells” value in the assay with U937 cells is given as “almost ineffective”. Besides, the IC50 with LNCaP cells [1] (48 h) was 34.1 ± 13.2 µM; in the assay on LNCaP cells [1] (72 h) it was 25.4 ± 3.2 µM; against LSD1-CoREST complex it was 0.19 ± 0.03 µM; with LSD1 it was 0.051 µM. Further, the “cell growth arrest IC50” value in [2] is “low, single-digit micromolar levels”; in the assay with NB4 APL cells it was “low, single-digit micromolar levels”. Moreover, the MAO-A inhibition in the assay with MAO-A is 2%. Also, in the assay on MAO-B, the MAO-B inhibition is listed as 8%.
`C#CCN(C)CCCOc1ccc(Cl)cc1Cl` [clorgyline]: in the assay with LNCaP cells [3], the 50% inhibitory concentration (IC50) was 63.7 ± 8.2 µM.
